According to PubChem BioAssay AID1963958 (Molecular Pharmacology Branch, DTP, NCI, 2024):
Values joined by “and” are separate entries in the source; they are usually repeats but may differ in a detail not shown here. Equal entries are not always repeated.

System: MDA-MB-231 multicell spheroids, viability
Assay: Anticancer human tumor MDA-MB-231 cell line growth inhibition [PI3K];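 note: spheroids exposed to agents for seven days before reading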;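 for viability, T/C: percent of vehicle control luminescence with DMSO treated spheroids as 100%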
Conditions: for viability, T/C: stronger effect = lower value
Excerpt: Combinatorial screen of targeted agents with the PI3K inhibitors inavolisib, alpelisib, duvelisib, and copanlisib in multi-cell type tumor spheroids
A high-throughput screen of multi-cell type tumor spheroids was designed to identify active combinations of targeted small molecules and PI3K pathway inhibitors. Complex spheroids include a stromal component modeled by human endothelial cells (HUVEC) and fibroblasts modeled by human mesenchymal stem cells (MSCs). The concentration ranges selected for each drug and investigational agent were based upon clinically achievable concentrations if the clinical Cmax of the agent was known.
Compounds. The drugs and investigational agents: inavolisib (NSC800729), alpelisib (NSC765974), duvelisib (NSC772469), copanlisib (NSC816437), ipatasertib (NSC767898), afuresertib (NSC778305), talazoparib (NSC767125), sapanisertib (NSC764658), selumetinib (NSC741078), tovorafenib (DAY101, NSC766906), vemurafenib (NSC761431), ravoxertinib (NSC781343), sotorasib (NSC818433), MRTX1133 (NSC 836407), abemaciclib (NSC 768073), palbociclib (NSC758247), venetoclax (NSC 766270), SY5609 (NSC837396), enzalutamide (NSC755605), and darolutamide (NSC825331), were obtained from the National Cancer Institute (NCI) Developmental Therapeutics Program Chemical Repository. The FDA-approved anticancer drug set is available from the NCI Developmental Therapeutics Program. […] The stock solutions were prepared in dimethyl sulfoxide (DMSO, Sigma-Aldrich, St. Louis, MO, cat. D2650) at 800-fold the tested concentration and stored at -70 degrees C prior to their use. All drugs and investigational agents were tested over a range starting from a high concentration at or near the clinical Cmax and decreasing in half-log increments. If the clinical Cmax for an agent had not been determined, the highest concentration tested was 10 microM.
Cell Culture. All cells were maintained in an incubator at 37 degrees C and 5% CO2 with 95% humidity. The PDC lines were cultured according to standard operating procedures established by the NCI PDMR (https://pdmr.cancer.gov/sops/default.htm). All PDCs were thawed and cultured in Matrigel-coated flasks prepared with a working solution of 1X Ham's F-12 nutrient mix, without supplementation (Invitrogen, Waltham, MA, cat. 11765054), 100 U/mL penicillin-streptomycin (Invitrogen, cat. 15140122), and 2.5% Matrigel (Corning Inc., Corning, NY, cat. 354248) for the first three passages. The 354836-022-R-J1-PDC, 475296-252-R-J1-PDC, and 997726-040-R-J2-PDC lines were cultured in 6A media, which includes advanced DMEM/F-12 (Thermo Fisher Scientific, cat. 12634028), 10 mM HEPES (Thermo Fisher Scientific, cat. 15630080), 1X GlutaMAX supplement (Thermo Fisher Scientific, cat. 35050061), 0.1 mg/mL primocin (InvivoGen, San Diego, CA, cat. ant-pm-2), 10% defined fetal bovine serum, heat inactivated (HyClone Laboratories Inc., Logan, UT, cat. SH30070.03HI), 50% L-WRN conditioned media (ATCC, cat. CRL-3276), 1.25 mM N-Acetyl-L-cysteine (Sigma-Aldrich, cat. A9165), 10 mM nicotinamide (Sigma-Aldrich, cat. N0636), 1X B-27 supplement (Thermo Fisher Scientific, cat. 17504044), 1X N-2 supplement (Thermo Fisher Scientific, cat. 17502048), and 10 microM Y-27632 dihydrochloride (Tocris Bioscience, Bristol, United Kingdom, cat. 1254). The 624824-186-R-J2-PDC line was cultured in 6C/Colon 1B media, which includes all 6A media components plus 50 ng/mL human EGF recombinant protein (Thermo Fisher Scientific, cat. PHG0311). […]

| Structure (SMILES) | viability, T/C (compound 0.0316 µM) | viability, T/C (compound 0.1 µM) | viability, T/C (compound 0.316 µM) | viability, T/C (compound 3.16 µM) | viability, T/C (compound 10 µM) | IC50 (curve of compound) | viability, T/C (compound 0.000316 µM) | viability, T/C (compound 0.001 µM) | viability, T/C (compound 0.00316 µM) | viability, T/C (compound 0.01 µM) | viability, T/C (compound 1 µM) | IC50 (compound alone, run of 05/08/2023) [nM] |
| --- | --- | --- | --- | --- | --- | --- | --- | --- | --- | --- | --- | --- |
| C=CC(=O)N1CCN(c2nc(=O)n(-c3c(C)ccnc3C(C)C)c3nc(-c4c(O)cccc4F)c(F)cc23)C(C)C1 (centres undefined) | 109% [middle of 4 runs] | 101% [middle of 4 runs] | 124% [middle of 4 runs] | 136% [middle of 4 runs] | 127% [middle of 4 runs] | > 10000 nM |  |  |  |  |  |  |
| CC(=O)c1c(C)c2cnc(Nc3ccc(N4CCNCC4)cn3)nc2n(C2CCCC2)c1=O | 79.7% [middle of 4 runs] | 49.9% [middle of 4 runs] |  |  |  | 98 nM and 91.6 nM and > 100 nM | 105% [middle of 4 runs] | 104% and 100% and 103% (2×) | 101% [middle of 4 runs] | 90% [middle of 4 runs] |  |  |
| CC(C)NCC(C(=O)N1CCN(c2ncnc3c2C(C)CC3O)CC1)c1ccc(Cl)cc1 (centres undefined) | 114% [middle of 4 runs] | 102% [middle of 4 runs] | 97.3% [middle of 4 runs] | 70.9% [middle of 4 runs] | 49.8% [middle of 4 runs] | > 10000 nM and 8950 nM and 7840 nM |  |  |  |  | 87.9% [middle of 4 runs] |  |
| CC(C)n1nc(-c2ccc3oc(N)nc3c2)c2c(N)ncnc21 | 67.4% [middle of 4 runs] | 38.8% [middle of 4 runs] |  |  |  | 66.7 nM [middle of 4 runs] | 107% [middle of 4 runs] | 99.7% [middle of 4 runs] | 104% and 101% (2×) and 97.3% | 84.7% [middle of 4 runs] |  |  |
| CC(Cn1ccc(-c2ccc(C#N)c(Cl)c2)n1)NC(=O)c1cc(C(C)O)[nH]n1 (centres undefined) | 106% [middle of 4 runs] | 99% [middle of 4 runs] | 111% [middle of 4 runs] | 100% [middle of 4 runs] | 92.5% [middle of 4 runs] | > 10000 nM |  |  |  |  | 107% [middle of 4 runs] |  |
| CC(Nc1ccc2c(c1)OCCn1cc(N3C(=O)OCC3C(F)F)nc1-2)C(N)=O (centres undefined) | 81.9% [middle of 8 runs] | 72.1% [middle of 8 runs] | 64.8% [middle of 8 runs] |  |  |  |  |  | 103% [middle of 8 runs] | 96.1% [middle of 8 runs] | 64.2% [middle of 8 runs] | > 1000 |
| CC(Nc1ncnc2nc[nH]c12)c1cc2cccc(Cl)c2c(=O)n1-c1ccccc1 (centres undefined) | 105% [middle of 8 runs] | 100% [middle of 8 runs] | 95.5% [middle of 8 runs] | 63.9% [middle of 8 runs] | 50.6% [middle of 8 runs] |  |  |  |  |  | 82.7% [middle of 8 runs] |  |
| CC1(C)CCC(CN2CCN(c3ccc(C(=O)NS(=O)(=O)c4ccc(NCC5CCOCC5)c([N+](=O)[O-])c4)c(Oc4cnc5[nH]ccc5c4)c3)CC2)=C(c2ccc(Cl)cc2)C1 | 108% [middle of 4 runs] | 103% [middle of 4 runs] | 109% [middle of 4 runs] | 113% (2×) and 112% and 119% |  |  |  |  |  |  | 113% [middle of 4 runs] |  |
| CC1(C)CCC(Nc2ncc(C(F)(F)F)c(-c3c[nH]c4c(P(C)(C)=O)c(C#N)ccc34)n2)CN1 (centres undefined) | 44.8% [middle of 4 runs] | 42.5% [middle of 4 runs] | 44.1% [middle of 4 runs] | 56.4% [middle of 4 runs] | 5.5% [middle of 4 runs] | 31.6 nM and 56.2 nM |  |  |  |  | 54.3% [middle of 4 runs] |  |
